{"source": "paper PMC5908295", "about": "(Oncotarget, 2018)", "key": {"[1]": {"molecular_target": "PIM1 (Homo sapiens, UniProt P11309)", "sequence (P11309 whole entry)": "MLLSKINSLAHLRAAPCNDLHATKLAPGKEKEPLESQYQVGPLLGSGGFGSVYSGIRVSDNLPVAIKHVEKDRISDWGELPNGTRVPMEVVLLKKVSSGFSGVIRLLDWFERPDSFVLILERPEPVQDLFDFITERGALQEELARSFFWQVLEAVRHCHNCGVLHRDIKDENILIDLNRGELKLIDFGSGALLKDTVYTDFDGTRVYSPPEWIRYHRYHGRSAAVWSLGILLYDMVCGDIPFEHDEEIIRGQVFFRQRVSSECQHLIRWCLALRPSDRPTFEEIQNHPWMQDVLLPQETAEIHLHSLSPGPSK", "assay": "KINOMEscan Kd (DiscoverX)", "type": "binding"}, "[2]": {"test_system": "KG-1", "assay": "MTS viability assay, 72 h", "details": "Homo sapiens, KG-1, 72 h"}, "[3]": {"molecular_target": "T1, CYP2C19 (Homo sapiens, UniProt P33261)", "T1 construct": "Cambridge Bioscience Limited (ran the assay)", "assay": "CYP isoforms inhibition", "type": "in vitro ADME", "details": "5-dose, 3-fold dilution starting at 30 µM", "procedure": "(§1) or absence of enzyme cofactors. The assay was performed microsomes. (Supplementary Table 7).\n(§2) with the respective reference samples (i.e. without measured at Cambridge Bioscience Limited (except\n(§3) cofactors). After incubation, drug transformation by liver CYP1A2 inhibition which was measured in-house). […]\n(§4) The control compound\n(§5) The analysis of two standard compounds (i.e. positive a very weak potential for CYP inhibition with IC50\n(§6) and negative controls) was included. […]"}, "[4]": {"molecular_target": "T2, CYP3A4 (Homo sapiens, UniProt P08684)", "T2 construct": "Cambridge Bioscience Limited (ran the assay)", "assay": "CYP isoforms inhibition", "type": "in vitro ADME", "details": "5-dose, 3-fold dilution starting at 30 µM", "procedure": "as §1, §2, §3, §4, §5, §6"}, "[5]": {"molecular_target": "T3, CYP2D6 (Homo sapiens, UniProt P10635)", "T3 construct": "Cambridge Bioscience Limited (ran the assay)", "assay": "CYP isoforms inhibition", "type": "in vitro ADME", "details": "5-dose, 3-fold dilution starting at 30 µM", "procedure": "as §1, §2, §3, §4, §5, §6"}, "[6]": {"test_system": "KASUMI-6", "assay": "MTS viability assay, 72 h", "details": "72 h"}, "[7]": {"assay": "Pharmacokinetics after oral and intravenous administration", "type": "in vivo, dogs (Beagle)", "details": "male, Beagle, plasma, Dog, Dose PO/IV 5/1 mg/kg", "procedure": "(§7) therapeutic potential in acute myeloid leukemia\n(§8) sheet for further calculations.\n(§9) Three male Beagle dogs were administered"}, "[8]": {"test_system": "GDM-1", "assay": "MTS viability assay, 72 h", "details": "Homo sapiens, GDM-1, 72 h"}, "[9]": {"test_system": "OCI-AML-2", "assay": "MTS viability assay, 72 h", "details": "Homo sapiens, OCI-AML2, 72 h"}, "[10]": {"test_system": "MOLM-14 cells transduced with FLT3 TKD point mutations (D835Y, D835V and F691L)", "assay": "MTS viability of MOLM-14 cells with FLT3 alleles", "type": "cell-based", "details": "72 h"}, "[11]": {"test_system": "KASUMI-3", "assay": "MTS viability assay, 72 h", "details": "Kasumi-3, 72 h"}, "[12]": {"assay": "Metabolic stability, liver S9 fraction", "type": "in vitro ADME", "details": "Human, 37 °C, read-out: Liver S9 fraction t1/2 (converted)"}, "[13]": {"test_system": "RS4;11", "assay": "MTS viability assay, 72 h", "details": "Homo sapiens, RS4-11, 72 h"}, "[14]": {"molecular_target": "FLT3wt (Homo sapiens, UniProt P36888)", "sequence (P36888 27-993)": "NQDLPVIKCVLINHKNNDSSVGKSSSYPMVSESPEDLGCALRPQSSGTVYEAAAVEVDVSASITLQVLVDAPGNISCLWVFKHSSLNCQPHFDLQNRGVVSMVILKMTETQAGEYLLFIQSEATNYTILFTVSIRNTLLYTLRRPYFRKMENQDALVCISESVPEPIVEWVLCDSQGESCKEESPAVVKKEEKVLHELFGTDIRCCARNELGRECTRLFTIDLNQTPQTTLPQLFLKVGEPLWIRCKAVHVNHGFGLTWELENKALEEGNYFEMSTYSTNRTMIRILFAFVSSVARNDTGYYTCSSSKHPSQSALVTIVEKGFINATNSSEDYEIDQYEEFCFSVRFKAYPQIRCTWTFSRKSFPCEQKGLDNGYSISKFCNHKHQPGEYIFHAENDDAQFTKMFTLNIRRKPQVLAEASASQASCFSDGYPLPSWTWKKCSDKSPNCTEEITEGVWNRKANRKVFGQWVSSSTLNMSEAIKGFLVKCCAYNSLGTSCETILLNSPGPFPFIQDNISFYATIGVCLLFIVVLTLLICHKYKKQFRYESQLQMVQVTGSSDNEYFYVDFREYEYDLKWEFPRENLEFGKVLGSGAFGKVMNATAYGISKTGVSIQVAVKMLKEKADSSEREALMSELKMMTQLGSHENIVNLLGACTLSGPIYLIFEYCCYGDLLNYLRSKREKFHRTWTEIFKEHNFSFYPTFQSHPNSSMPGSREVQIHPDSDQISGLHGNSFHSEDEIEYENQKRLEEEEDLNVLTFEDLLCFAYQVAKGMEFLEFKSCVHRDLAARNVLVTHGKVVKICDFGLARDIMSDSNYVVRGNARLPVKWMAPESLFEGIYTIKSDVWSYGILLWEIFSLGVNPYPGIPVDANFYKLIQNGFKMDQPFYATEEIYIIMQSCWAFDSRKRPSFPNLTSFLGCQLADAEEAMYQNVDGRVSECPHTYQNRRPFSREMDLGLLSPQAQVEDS", "assay": "KINOMEscan Kd (DiscoverX)", "type": "binding"}, "[15]": {"assay": "Total blood cell counts in mice with MV-4-11 tumors", "details": "treatment day 15", "text": "All animals were handled in strict accordance with good animal practice as defined by the relevant national and local animal welfare bodies. SCID and SCID/beige C.B-17 mice were provided by Harlan Laboratories or Charles River Laboratories, and were maintained in pathogen free conditions. For the xenograft experiments, age-matched (9-11 weeks old) females were used. 5×10^6 of MV-4-11 or MOLM-16 cells were suspended in a mixture (1:1, v:v) of PBS with Matrigel (BD Biosciences,) and injected subcutaneously (sc), in a total volume of 100 μL, above the groin on the right hind limb. For MOLM-13 and KG-1 cells, a mixture (3:1, v:v) of PBS and Matrigel HC (BD Bioscience,) was used to inject 5 × 10^6 of cell per mouse subcutaneously (sc), in a total volume of 100 μL. When tumors reached 100-130 mm^3, mice were randomized into uniform groups (6-9 mice per group) and subsequently administered the compound. […] At the end of the experiment, mice were anesthetized with isofluran and blood samples for total cell counts and biochemistry were obtained by retro-orbital bleeding. […] 5×10^6 cells suspended in a mixture (3:1, v:v) of PBS and Matrigel were injected as described above. When the tumor volume reached ~120 mm^3, mice were randomized into uniform groups (5 mice per group) and the compound then administered. […] Tumor volume was monitored every second day and calculated using the formula: TV = (a^2×b)/2, where “a” is the short axis in millimeters, and “b” is the long axis in millimeters. Body weight was assessed every day. […]\nSupplementary Table 10: Related to Figure 5C. […] The assessment total\nperformed on treatment day 15.\nRBC – red blood cells, HGB – hemoglobin, HCT – hematocrit, WBC – white blood cells, LYMPH – lymphocytes, MONO\n– monocytes, GRA – granulocytes, PLT – platelet, MPV – mean platelet volume."}, "[16]": {"assay": "Pharmacokinetics after oral and intravenous administration", "type": "in vivo, rats (Sprague Dawley)", "details": "male, plasma, Rat, Dose PO/IV 25/1 mg/kg", "procedure": "as §7, §8, §9"}, "[17]": {"molecular_target": "PIM3 (Homo sapiens, UniProt Q86V86)", "assay": "KINOMEscan Kd (DiscoverX)", "type": "binding"}, "[18]": {"test_system": "MOLM-13", "assay": "MTS viability assay, 72 h", "details": "Homo sapiens, MOLM-13, 72 h"}, "[19]": {"test_system": "MOLM-16", "assay": "MTS viability assay, 72 h", "details": "MOLM16, 72 h"}, "[20]": {"test_system": "MOLM-14", "assay": "MTS viability assay, 72 h", "details": "Homo sapiens, MOLM-14, 72 h"}}, "note": "Read-outs that look alike come from different tables or passages of the source."}
{"smiles": "CC(C)n1c(C2CCNCC2)nc2c([N+](=O)[O-])c(Br)c(Br)cc21", "note": "[SEL24-B489, 5,6-dibromo-4-nitro-2-(piperidin-4-yl)-1-(propan-2-yl)-1H-1,3-benzodiazole]", "values": [{"measurement": "Kd", "setting": "[1]", "value": 2, "unit": "nM"}, {"measurement": "GI50", "setting": "[2]", "value": 67, "unit": "nM"}, {"measurement": "CC50", "setting": "[2]; read-out: LC50", "value": 2440, "unit": "nM"}, {"measurement": "IC50", "setting": "[3]", "value": "> 70000", "unit": "nM"}, {"measurement": "IC50", "setting": "[4]", "value": "> 100000", "unit": "nM"}, {"measurement": "IC50", "setting": "[5]", "value": 10000, "unit": "nM"}, {"measurement": "GI50", "setting": "[6]", "value": 17, "unit": "nM"}, {"measurement": "Cmax", "setting": "[7]; 5 mg/kg", "value": 155, "unit": "ng/mL"}, {"measurement": "Tmax", "setting": "[7]; 5 mg/kg", "value": 1.75, "unit": "h"}, {"measurement": "bioavailability", "setting": "[7]; 5 mg/kg, read-out: F (bioavailability)", "value": 47, "unit": "%"}, {"measurement": "AUC(0-t)", "setting": "[7]", "value": 3080, "unit": "ng·h/mL"}, {"measurement": "half-life", "setting": "[7]", "value": 17.6, "unit": "h"}, {"measurement": "GI50", "setting": "[8]", "value": 680, "unit": "nM"}, {"measurement": "GI50", "setting": "[9]", "value": 960, "unit": "nM"}, {"measurement": "CC50", "setting": "[9]; read-out: LC50", "value": 2320, "unit": "nM"}, {"measurement": "viability of MOLM-14 cells with FLT3-TKD mutants versus FLT3-ITD or parental cells", "setting": "[10]", "value": "neither of the FLT3 TKD point mutations decreased the cellular sensitivity"}, {"measurement": "GI50", "setting": "[11]", "value": 633, "unit": "nM"}, {"measurement": "CC50", "setting": "[11]; read-out: LC50", "value": 2330, "unit": "nM"}, {"measurement": "half-life at 1 µM", "setting": "[12]", "value": 9.9, "unit": "h"}, {"measurement": "GI50", "setting": "[13]", "value": 190, "unit": "nM"}, {"measurement": "CC50", "setting": "[13]; read-out: LC50", "value": 2160, "unit": "nM"}, {"measurement": "Kd", "setting": "[14]", "value": 160, "unit": "nM"}, {"measurement": "GRA", "setting": "[15]; SEL24-B489 25 mg/kg", "value": 42.2, "unit": "%"}, {"measurement": "HCT", "setting": "[15]; SEL24-B489 25 mg/kg", "value": 48.8, "unit": "%"}, {"measurement": "HGB", "setting": "[15]; SEL24-B489 25 mg/kg", "value": 14.6, "unit": "g/dL"}, {"measurement": "LYMPH", "setting": "[15]; SEL24-B489 25 mg/kg", "value": 47.2, "unit": "%"}, {"measurement": "MONO", "setting": "[15]; SEL24-B489 25 mg/kg", "value": 10.6, "unit": "%"}, {"measurement": "MPV", "setting": "[15]; SEL24-B489 25 mg/kg", "value": 6.1, "unit": "μm3"}, {"measurement": "PLT", "setting": "[15]; SEL24-B489 25 mg/kg", "value": "1016 103/mm3"}, {"measurement": "RBC", "setting": "[15]; SEL24-B489 25 mg/kg", "value": "9.8 106/mm3"}, {"measurement": "WBC", "setting": "[15]; SEL24-B489 25 mg/kg", "value": "3.1 103/mm3"}, {"measurement": "GRA", "setting": "[15]; SEL24-B489 50 mg/kg", "value": 49.1, "unit": "%"}, {"measurement": "HCT", "setting": "[15]; SEL24-B489 50 mg/kg", "value": 47.4, "unit": "%"}, {"measurement": "HGB", "setting": "[15]; SEL24-B489 50 mg/kg", "value": 14.4, "unit": "g/dL"}, {"measurement": "LYMPH", "setting": "[15]; SEL24-B489 50 mg/kg", "value": 40.3, "unit": "%"}, {"measurement": "MONO", "setting": "[15]; SEL24-B489 50 mg/kg", "value": 10.5, "unit": "%"}, {"measurement": "MPV", "setting": "[15]; SEL24-B489 50 mg/kg", "value": 5.7, "unit": "μm3"}, {"measurement": "PLT", "setting": "[15]; SEL24-B489 50 mg/kg", "value": "1286 103/mm3"}, {"measurement": "RBC", "setting": "[15]; SEL24-B489 50 mg/kg", "value": "9.6 106/mm3"}, {"measurement": "WBC", "setting": "[15]; SEL24-B489 50 mg/kg", "value": "4.9 103/mm3"}, {"measurement": "Cmax", "setting": "[16]; Sprague Dawley, 25 mg/kg", "value": 913, "unit": "ng/mL"}, {"measurement": "Tmax", "setting": "[16]; Sprague Dawley, 25 mg/kg", "value": 6.7, "unit": "h"}, {"measurement": "AUC(0-t)", "setting": "[16]; Sprague Dawley", "value": 19600, "unit": "ng·h/mL"}, {"measurement": "half-life", "setting": "[16]; Sprague Dawley", "value": 10, "unit": "h"}, {"measurement": "bioavailability", "setting": "[16]; Sprague-Dawley, 25 mg/kg, read-out: F (bioavailability)", "value": 52, "unit": "%"}, {"measurement": "Kd", "setting": "[17]", "value": 3, "unit": "nM"}, {"measurement": "GI50", "setting": "[18]", "value": 73, "unit": "nM"}, {"measurement": "CC50", "setting": "[18]; read-out: LC50", "value": 446, "unit": "nM"}, {"measurement": "GI50", "setting": "[19]", "value": 42, "unit": "nM"}, {"measurement": "CC50", "setting": "[19]; read-out: LC50", "value": 153, "unit": "nM"}, {"measurement": "GI50", "setting": "[20]", "value": 97, "unit": "nM"}, {"measurement": "CC50", "setting": "[20]; read-out: LC50", "value": "> 10000", "unit": "nM"}]}
